Each block holds one compound with its values, some of them ahead of it.
Legend:
Assay type in all cases: cell-based
[1] = tested on: AML cell lines (Kasumi-3, HL-60, and THP-1); experiment: AML cell viability assay (Cell Titer Glo), HDAC inhibitor combined with azacitidine; settings: combination with azacitidine; 72 hours; synergistic only when CI<0.7
Description: With the same amount of cultured AML cells in each well, serial dilutions of one compound were added into each row of the wells from left to right, and serial dilutions of the second compound were mixed into each column of these wells from top to bottom. Therefore, those AML cells on the testing plate were exposed to various combinations of the two compounds at different concentrations. The viable cells in each well were measured after 72 hours incubation at 37° C., and the percentage of unviable cells was calculated and normalized to the total cells. […] The CI values were plotted as a function of Fa, as shown in FIGS. 1A-D. In order to avoid any possible false positives due to experimental data variability, a combination was determined “synergistic” only when CI<0.7, as shown in the shaded area of each graph. […] The synergism is driven predominantly by HDAC1/2 inhibition.

NB4 = experiment: Surface CD11b by FACS in NB4; settings: combination with azacitidine vs single agent, 72 hours
Description: Briefly, the AML cell lines HL-60 (FIGS. 4A and 4D), Kasumi-1 (FIGS. 4B and 4E) and NB4 (FIGS. 4C and 4F) were treated with the indicated concentrations of compounds. In FIGS. 4A-C, surface levels of myeloid differentiation marker CD11b were determined by FACS at 72 hours post-treatment. […] In FIGS. 4D-F, apoptosis was assessed by flow cytometry by measuring Annexin V binding and cellular permeability to propidium iodide at 96 hours post-treatment. The relative fraction of cells that were alive, in early apoptosis, in late apoptosis, or dead was then determined.
FIGS. 7A-F show the combination of HDAC inhibitors and azacitidine in the NB4 cell line. Briefly, cells were treated with DMSO, Compound B, Compound A, or Compound E as single agent or in combination with azacitidine at the indicated concentrations. Surface levels of CD11b were determined 72 hours post-treatment (FIGS. 7A, 7C, 7E), and apoptosis was assessed 96 hours post-treatment (FIGS. 7B, 7D, 7F).

[2] = tested on: bone marrow samples derived from AML patients; experiment: Primary AML sample colony formation assay; settings: Homo sapiens, 336 h, read-out: median IC50, colony formation
Description: (A) 6 bone marrow samples derived from AML patients were cultured in methylcellulose-based medium and treated with increasing concentrations of Compound A, Compound J and azacitidine for 14 days when the colonies reach reasonable size. IC50 values for each drug are plotted. […] IC50 values were plotted for each patient sample.

[3] = tested on: HL-60, NB4, MV4-11, Kasumi-1, THP-1, and MOLM-13; experiment: Single agent activity on viability in AML cell lines; settings: 72 hours, six AML cell lines
Description: FIGS. 3A-D show the single agent activity on viability in AML cell lines. Briefly, each of the following cell lines: HL-60, THP-1, MV-4-11, Kasumi-1, NB4, and MOLM-13 were exposed to increasing concentrations of either Compound B (FIG. 3A), Compound A (FIG. 3B), Compound E (FIG. 3C), or azacitidine (FIG. 3D) to determine their response to drug treatment. […] The panel of cell lines was also treated with azacitidine to measure their sensitivity.
FIGS. 8A-F show the single agent activity on viability in AML cell lines. […] Viability was calculated as a percentage of control (DMSO treated cells). Growth inhibition curves were generated using GraphPad Prism 6.
FIG. 17. […] (B-D) MV4-11 cells were treated with indicated concentrations of compounds. (B) Surface levels of myeloid differentiation marker CD11b were determined by FACS at 72 h post-treatment. […] (C) Cell cycle was assessed by flow cytometry after incorporation of EdU and staining with Far Red at 72 h post-treatment. The distribution of cells among G0/G1 phase, G2/M phase, S phase and subG1 phase was determined. […] (D) Apoptosis was assessed by flow cytometry via measuring Annexin V binding and cellular permeability to propidium iodide at 96 h post-treatment. The relative fraction of cells that were live, in early apoptosis, in late apoptosis or dead was then determined.

MV4-11 = experiment: Cell cycle by flow cytometry (EdU, Far Red) in MV4-11; settings: single agent, 72 h
Description: The distribution of cells among G0/G1 phase, G2/M phase, S phase and subG1 phase was determined. […] The relative fraction of cells that were live, in early apoptosis, in late apoptosis, or dead was then determined.
FIG. 17. […] (A) Indicated AML cell lines were exposed to increasing concentrations of Compound J to confirm their sensitivity to HDAC1/2 inhibition. (B-D) MV4-11 cells were treated with indicated concentrations of compounds. (B) Surface levels of myeloid differentiation marker CD11b were determined by FACS at 72 h post-treatment. […] (C) Cell cycle was assessed by flow cytometry after incorporation of EdU and staining with Far Red at 72 h post-treatment. The distribution of cells among G0/G1 phase, G2/M phase, S phase and subG1 phase was determined. […] (D) Apoptosis was assessed by flow cytometry via measuring Annexin V binding and cellular permeability to propidium iodide at 96 h post-treatment. The relative fraction of cells that were live, in early apoptosis, in late apoptosis or dead was then determined.

Kasumi-1 = Kasumi-1 cell cycle by propidium iodide staining (sub-G1); settings: 72 hours, increasing concentrations
Description: HDAC inhibition causing AML cell death (apoptosis) was measured by staining the AML cells with propidium iodide after the cells were exposed to different concentrations of the HDAC inhibitors. Four distinct cell populations, G1, S, G2, and sub-G1, were separated and quantified based on their propidium iodide staining patterns. The sub-G1 cells are those dying or dead cells, and the percentage of this population was a reflection of the tested compound cytotoxicity.

Structure (SMILES): O=C(CCCCCCNC(=O)c1cnc(N(c2ccccc2)c2ccccc2)nc1)NO [Compound A, 2-(diphenylamino)-N-(7-(hydroxyamino)-7-oxoheptyl)pyrimidine-5-carboxamide]
synergy of cytotoxicity with azacitidine (CI vs Fa) [1]: significant synergistic cell killing
CD11b positive cells (NB4): synergistic increases of CD11b positive cells
IC50 [2]: 9.76 µM
viability IC50 relative to HDAC selective range [3]: has some inhibitory effects on HDAC1/2 at their IC50 values
cell cycle arrest (MV4-11): induced cell cycle arrest as well as apoptosis

Structure (SMILES): O=C(CCCCCCNC(=O)c1cnc(N(c2ccccc2)c2ccccc2Cl)nc1)NO [Compound B, 2-((2-chlorophenyl)(phenyl)amino)-N-(7-(hydroxyamino)-7-oxoheptyl)pyrimidine-5-carboxamide]
sub-G1 cells (dying or dead cells) (Kasumi-1): Increased amount of sub-G1 cells
CD11b positive cells (NB4): synergistic increases of CD11b positive cells

viability IC50 relative to HDAC selective range [3]: within its HDAC1/2 selective range
Structure (SMILES): Nc1ccc(-c2cccs2)cc1NC(=O)c1ccc2c(c1)cc(C1CC1)n2CCN1CCOCC1 [Compound E, N-(2-amino-5-(thiophen-2-yl)phenyl)-2-cyclopropyl-1-(2-morpholinoethyl)-1H-indole-5-carboxamide]
synergy of cytotoxicity with azacitidine (CI vs Fa) [1]: the most synergy
sub-G1 cells (dying or dead cells) (Kasumi-1): Increased amount of sub-G1 cells
cell cycle arrest (MV4-11): induced cell cycle arrest as well as apoptosis
